We go through 29 compounds from patent US9006241B2, “Pyrimidine derivatives” (Noviga Research AB, priority 2011, dated 2015).

One may read the EC50 as the concentration needed to bring the measured effect to its halfway point. The low end stands for greater potency, the high end for weaker potency.

This experiment has as its system CCRF-CEM cancer cells - leukemia. The experiment can be described thus: Fluorometric Microculture Cytotoxicity Assay (FMCA), CCRF-CEM. The settings on record: Homo sapiens, 72 h incubation. Type of experiment: cell-based. From the text: The Fluorometric Microculture Cytotoxicity Assay, FMCA (Larsson, R., et al.; Anticancer Res, 1989, 9, 1111-1119), is a three day non-clonogenic microplate-based cell viability assay used for measurement of the cytotoxic and/or cytostatic effect of compounds in vitro (Lindhagen, E. et al.; Nat. Protoc., 2008, 3, 1364-1369). FMCA represents a valuable method to measure cytotoxicity in a number of cell types, both cell lines and primary cells from patients (Larsson, R., et al.; Int. J. Cancer, 1992, 50, 177-185; Fridborg, H., et al.; Eur. J. Cancer, 1999. 35, 424-432; Dhar, S., et al.; Br. J. Cancer, 1996, 74, 888-896).
FMCA is based on the principle that fluorescein diacetate (FDA) is converted to the fluorescent probe fluorescein by esterases in the plasma membranes of living cells. For experiments, 96 or 384-well microplates are prepared with compounds and stored at −70° C. until use. Cells are then seeded into the drug-prepared plates and placed in an incubator for 72 h. On the last day of incubation, the plates are washed and a buffer containing FDA is added and incubated with the cells for 45 minutes. Finally the fluorescence per well is measured in a fluorometer and a Survival Index % (SI) for each compound-treated well is calculated with the equation: Compound-treated cells minus blank divided by control cells minus blank. A high SI-value indicates a large percentage of living cells and vice versa.
In subsequent experiments, compounds were tested, along with a number of approved cancer drugs (dasatinib, pazopanib, sorafenib, and sunitinib) as described above. Initially, the acute lymphoblastic leukemia cell line CCRF-CEM was used throughout. In the assay plates, medium was added to six empty wells (blank wells) and wells were filled with PBS and cell suspension and served as control wells. SI-values were then calculated for each compound-treated well as described above. All experiments were conducted twice and a new batch of plates was prepared for each experiment.
For dose-response experiments, 384-well plates were prepared as follows:
Compounds of the invention as well comparative kinase inhibitors sorafenib sunitinib, dasatinib, pazopanib and a reference compound disclosed in WO 2009/071535 (compound #107) were diluted with PBS to a concentration ten-times higher than the desired starting concentration. Then, a Biomek 2000 liquid handling system was employed to serially dilute the compounds in a deep-well 384-well plate. From this plate, assay plates containing 5 μl compound per well were prepared with the Biomek 2000. Certain compounds precipitated when diluted with PBS, and these compounds were therefore prepared in a 96-well plate manually as described above using culture medium RPMI 1640 instead of PBS.
The compounds were also tested at five concentrations, with five times serial dilution on the following cell types: CCRF-CEM, hTERT-RPE1 (normal retinal epithelial cells), hRPTEpiC (normal renal cells), and peripheral blood mononuclear cells (PBMC). Each experiment was performed three times, except for PBMC and hRPTEpiC, which were performed twice. SI-values were calculated, graphs were plotted using GraphPadPrism 5.0 (GraphPad Software Inc. La Jolla, Calif.) and IC50-values for each cell type and compound were determined from the curves.
Compound `COc1ccc2[nH]cc(CCNc3ccnc(Nc4ccc5[nH]c(C)cc5c4)n3)c2c1` [Example 23, N^4-[2-(5-methoxy-1H-indol-3-yl)ethyl]-N^2-(2-methyl-1H-indol-5-yl)pyrimidine-2,4-diamine] gave a concentration giving a half-maximal response (EC50) of 59 nM. To `COc1ccc2[nH]cc(CCNc3nccc(Nc4ccc5[nH]c(C(=O)OCCO)cc5c4)n3)c2c1` [Example 17, 2-hydroxyethyl 5-{2-[2-(5-methoxy-1H-indol-3-yl)ethylamino]pyrimidin-4-ylamino}-1H-indole-2-carboxylate] belongs 1400 nM; to `COc1ccc2[nH]cc(CCNc3nc(C)cc(Nc4ccc5[nH]c(C)nc5c4)n3)c2c1` [Example 57, N^2-[2-(5-methoxy-1H-indol-3-yl)ethyl]-6-methyl-N^4-(2-methyl-1H-benzo[d]imidazol-5-yl)pyrimidine-2,4-diamine], 230 nM. Turning to `COc1ccc2[nH]cc(CCNc3nccc(Nc4ccc5cc[nH]c5c4)n3)c2c1` [Example 20, N^4-(1H-indol-6-yl)-N^2-[2-(5-methoxy-1H-indol-3-yl)ethyl]pyrimidine-2,4-diamine], the EC50 is 140 nM. Compound `COc1ccc2[nH]cc(CCNc3nccc(Nc4cccc5c4ccn5C)n3)c2c1` [Example 54, N^2-[2-(5-methoxy-1H-indol-3-yl)ethyl]-N^4-(1-methyl-1H-indol-4-yl)pyrimidine-2,4-diamine] had a concentration giving a half-maximal response (EC50) of 2.8 nM. With `CCOc1ccc2[nH]cc(CCNc3ncc(N)c(Nc4ccc5[nH]c(C)cc5c4)n3)c2c1` [Example 90, N^2-[2-(5-ethoxy-1H-indol-3-yl)ethyl]-N^4-(2-methyl-1H-indol-5-yl)pyrimidine-2,4,5-triamine] the figure was under 100 nM; with `COc1ccc2[nH]cc(CCNc3nccc(Nc4cccc5[nH]c(C)cc45)n3)c2c1` [Example 77, N^2-[2-(5-methoxy-1H-indol-3-yl)ethyl]-N^4-(2-methyl-1H-indol-4-yl)pyrimidine-2,4-diamine], under 100 nM.

`COc1ccc2[nH]cc(CCNc3nccc(N(C)c4ccc5[nH]c(C)cc5c4)n3)c2c1` [Example 61, N^2-[2-(5-methoxy-1H-indol-3-yl)ethyl]-N^4-methyl-N^4-(2-methyl-1H-indol-5-yl)pyrimidine-2,4-diamine] gave an EC50 of 1000 to 10000 nM. To `CCOc1ccc2[nH]cc(CCNc3nc(C)cc(Nc4ccc5[nH]c(C)cc5c4)n3)c2c1` [Example 55, N^2-[2-(5-ethoxy-1H-indol-3-yl)ethyl]-6-methyl-N^4-(2-methyl-1H-indol-5-yl)pyrimidine-2,4-diamine] belongs 53 nM; to `COc1cc(C)c2[nH]cc(CCNc3nccc(Nc4ccc5[nH]c(C)cc5c4)n3)c2c1` [Example 51, N^2-[2-(5-methoxy-7-methyl-1H-indol-3-yl)ethyl]-N^4-(2-methyl-1H-indol-5-yl)pyrimidine-2,4-diamine], 76 nM. To `Cc1cc2cc(Nc3ccnc(NCCc4c[nH]c5ccc(OC(C)C)cc45)n3)ccc2[nH]1` [Example 49, N^2-[2-(5-isopropoxy-1H-indol-3-yl)ethyl]-N^4-(2-methyl-1H-indol-5-yl)pyrimidine-2,4-diamine] belongs 100 nM; to `COc1ccc2[nH]cc(CCNc3nc(Nc4cccc5c4ccn5C)cc(C(N)=O)n3)c2c1` [Example 87, 2-[2-(5-methoxy-1H-indol-3-yl)ethylamino]-6-[(1-methylindol-4-yl)amino]pyrimidine-4-carboxamide], under 100 nM.

Take `COc1ccc2[nH]cc(CCNc3nccc(Nc4ccc5c(c4)nc(CO)n5C)n3)c2c1` [Example 60, (5-{2-[2-(5-methoxy-1H-indol-3-yl)ethylamino]pyrimidin-4-ylamino}-1-methyl-1H-benzo[d]imidazol-2-yl)methanol]: the EC50 worked out at 210 nM. To `COc1ccc2[nH]cc(CCNc3nccc(Nc4ccc5cc(C)[nH]c5c4)n3)c2c1` [Example 73, N^2-[2-(5-methoxy-1H-indol-3-yl)ethyl]-N^4-(2-methyl-1H-indol-6-yl)pyrimidine-2,4-diamine] belongs under 100 nM; to `COc1ccc2[nH]cc(CCNc3nc(Nc4ccc5c(c4)nc(C)n5C)cc(C(N)=O)n3)c2c1` [Example 86, 6-[(1,2-dimethylbenzimidazol-5-yl)amino]-2-[2-(5-methoxy-1H-indol-3-yl)ethylamino]pyrimidine-4-carboxamide], under 1000 nM; to `COc1ccc2[nH]cc(CCNc3nccc(Nc4ccc5[nH]ccc5c4)n3)c2c1` [Example 2, N^4-(1H-indol-5-yl)-N^2-[2-(5-methoxy-1H-indol-3-yl)ethyl]pyrimidine-2,4-diamine], 140 nM. To `CCOc1ccc2[nH]cc(CCNc3nc(Nc4ccc5[nH]c(C)cc5c4)cc(C(N)=O)n3)c2c1` [Example 85, 2-[2-(5-ethoxy-1H-indol-3-yl)ethylamino]-6-[(2-methyl-1H-indol-5-yl)amino]pyrimidine-4-carboxamide] belongs under 100 nM. Take `Cc1cc2cc(Nc3ccnc(NCCc4c[nH]c5ccc(O)cc45)n3)ccc2[nH]1` [Example 8, 3-{2-[4-(2-methyl-1H-indol-5-ylamino)pyrimidin-2-ylamino]ethyl}-1H-indol-5-ol]: the midpoint of the response, the EC50, lay at 3100 nM. This lies in the single-digit micromolar range. With `CCOc1ccc2[nH]cc(CCNc3nccc(Nc4cccc5c4ccn5C)n3)c2c1` [Example 80, N^2-[2-(5-ethoxy-1H-indol-3-yl)ethyl]-N^4-(1-methylindol-4-yl)pyrimidine-2,4-diamine] the figure was under 100 nM. With `COc1ccc2[nH]cc(CCNc3nccc(Nc4ccc5[nH]cnc5c4)n3)c2c1` [Example 18, N^4-(1H-benzo[d]imidazol-5-yl)-N^2-[2-(5-methoxy-1H-indol-3-yl)ethyl]pyrimidine-2,4-diamine] the figure was 420 nM.

For the compound `Cc1cc2cc(Nc3nccc(NCCc4c[nH]c5ccccc45)n3)ccc2[nH]1` [Example 22, N^4-[2-(1H-indol-3-yl)ethyl]-N^2-(2-methyl-1H-indol-5-yl)pyrimidine-2,4-diamine], a half-maximal response (EC50) required 3400 nM. With `COc1cccc2[nH]cc(CCNc3nccc(Nc4ccc5[nH]c(C)cc5c4)n3)c12` [Example 47, N^2-[2-(4-methoxy-1H-indol-3-yl)ethyl]-N^4-(2-methyl-1H-indol-5-yl)pyrimidine-2,4-diamine] the figure was 330 nM. To `COc1ccc2[nH]cc(CCNc3nccc(Nc4ccc5c(c4)ncn5C)n3)c2c1` [Example 52, N^2-[2-(5-methoxy-1H-indol-3-yl)ethyl]-N^4-(1-methyl-1H-benzo[d]imidazol-5-yl)pyrimidine-2,4-diamine] belongs 430 nM. With `COc1ccc2[nH]c(C)c(CCNc3nc(C)cc(Nc4ccc5[nH]c(C)cc5c4)n3)c2c1` [Example 56, N^2-[2-(5-methoxy-2-methyl-1H-indol-3-yl)ethyl]-6-methyl-N^4-(2-methyl-1H-indol-5-yl)pyrimidine-2,4-diamine] the figure was 130 nM; with `CCCOc1ccc2[nH]cc(CCNc3nccc(Nc4ccc5[nH]c(C)cc5c4)n3)c2c1` [Example 48, N^4-(2-methyl-1H-indol-5-yl)-N^2-[2-(5-propoxy-1H-indol-3-yl)ethyl]pyrimidine-2,4-diamine], 1300 nM; with `CCOc1ccc2[nH]cc(CCNc3nccc(Nc4ccc5ccn(C)c5c4)n3)c2c1` [Example 76, N^2-[2-(5-ethoxy-1H-indol-3-yl)ethyl]-N^4-(1-methylindol-6-yl)pyrimidine-2,4-diamine], under 1000 nM. The compound `CCOc1ccc2[nH]cc(CCNc3nccc(Nc4cccc5[nH]c(C)nc45)n3)c2c1` [Example 83, N^2-[2-(5-ethoxy-1H-indol-3-yl)ethyl]-N^4-(2-methyl-1H-benzimidazol-4-yl)pyrimidine-2,4-diamine] displayed an EC50 of under 1000 nM. With `COc1cc2[nH]cc(CCNc3nccc(Nc4ccc5[nH]c(C)cc5c4)n3)c2cc1OC` [Example 50, N^2-[2-(5,6-dimethoxy-1H-indol-3-yl)ethyl]-N^4-(2-methyl-1H-indol-5-yl)pyrimidine-2,4-diamine] the figure was 180 nM. Consider `CCOc1ccc2[nH]cc(CCNc3nc(C)cc(Nc4ccc5[nH]c(C)nc5c4)n3)c2c1` [Example 58, N^2-[2-(5-ethoxy-1H-indol-3-yl)ethyl]-6-methyl-N^4-(2-methyl-1H-benzo[d]imidazol-5-yl)pyrimidine-2,4-diamine], for which the EC50 was determined as 170 nM.
